# Data from US20100298141A1, “SUBSTITUTED PYRIDINE N-OXIDE HERBICIDES” (E. I. DU PONT DE NEMOURS AND COMPANY, priority 2007, published 2010).
# How the values were obtained:
# morningglory = test: Test A pre-/postemergence greenhouse test; assay type: in vivo, Ipomoea spp.; conditions: for Morningglory plant response rating: 0 to 100 scale; for Plant response rating, Morningglory: 0 to 100 scale where 0 is no effect and 100 is complete control
# How it was run: (§1)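 Test compounds in non-phytotoxic solvent with surfactant were applied as a preemergence soil spray to seeded loam/sand pots and, concurrently, postemergence to plants at 2–10 cm, one- to two-leaf stage. About ten days in greenhouse, then injury visually rated against untreated controls.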
# barnyardgrass [1] = test: Test A pre-/postemergence greenhouse test; assay type: in vivo, Echinochloa crus-galli; conditions: for Barnyardgrass plant response rating: 0 to 100 scale; for Plant response rating, Barnyardgrass: 0 to 100 scale where 0 is no effect and 100 is complete control
# How it was run: as §1
# rice = test: Test C flooded paddy test; assay type: in vivo, Oryza sativa; conditions: Flood
# How it was run: (§2)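 Flooded 3 cm over soil; compound into paddy water; depth kept constant. Greenhouse 13–15 d.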
# duck salad = test: Test C flooded paddy test; assay type: in vivo, Heteranthera limosa; conditions: Flood
# How it was run: as §2
# corn = test: Test A pre-/postemergence greenhouse test; assay type: in vivo, Zea mays; conditions: for Corn plant response rating: 0 to 100 scale; for Plant response rating, Corn: 0 to 100 scale where 0 is no effect and 100 is complete control
# How it was run: as §1
# umbrella sedge = test: Test C flooded paddy test; assay type: in vivo, Cyperus difformis; conditions: Flood
# How it was run: as §2
# redroot pigweed = test: Test A pre-/postemergence greenhouse test; assay type: in vivo, Amaranthus retroflexus; conditions: for Pigweed plant response rating: 0 to 100 scale
# How it was run: as §1
# barnyardgrass [2] = test: Test C flooded paddy test; assay type: in vivo, Echinochloa crus-galli; conditions: Flood
# How it was run: as §2
# giant foxtail = test: Test A pre-/postemergence greenhouse test; assay type: in vivo, Setaria faberi; conditions: for Foxtail, Giant plant response rating: 0 to 100 scale; for Plant response rating, Foxtail, Giant: 0 to 100 scale where 0 is no effect and 100 is complete control
# How it was run: as §1
# crabgrass = test: Test A pre-/postemergence greenhouse test; assay type: in vivo, Digitaria sanguinalis; conditions: for Crabgrass, Large plant response rating: 0 to 100 scale; for Plant response rating, Crabgrass, Large: 0 to 100 scale where 0 is no effect and 100 is complete control
# How it was run: as §1
# wheat = test: Test A pre-/postemergence greenhouse test; assay type: in vivo, Triticum aestivum; conditions: for Wheat plant response rating: 0 to 100 scale; for Plant response rating, Wheat: 0 to 100 scale where 0 is no effect and 100 is complete control
# How it was run: as §1
# velvetleaf = test: Test A pre-/postemergence greenhouse test; assay type: in vivo, Abutilon theophrasti; conditions: for Velvetleaf plant response rating: 0 to 100 scale; for Plant response rating, Velvetleaf: 0 to 100 scale where 0 is no effect and 100 is complete control
# How it was run: as §1
# [3] = Postemergence, 125 g ai/ha, 0 is no effect, 100 is complete control
# [4] = Postemergence, 500 g ai/ha, 0 is no effect, 100 is complete control
# [5] = Preemergence, 125 g ai/ha, 0 no effect, 100 complete control
# [6] = 31 g ai/ha, scale 0 to 100 (0 no effect, 100 complete control)
# [7] = 62 g ai/ha, scale 0 to 100, 0 no effect, 100 complete control, 13 to 15 days
# [8] = 125 g ai/ha, scale 0 to 100, 0 no effect, 100 complete control, 13 to 15 days
# [9] = 250 g ai/ha, scale 0 to 100 (0 no effect, 100 complete control)
# [10] = 250 g ai/ha, scale 0 to 100, 0 no effect, 100 complete control, 13 to 15 days
smiles,measurement,setting,value
Cn1nc(C(F)(F)F)c(CS(=O)(=O)c2ccc(Br)c[n+]2[O-])c1OC(F)F [Compound 13],Morningglory plant response rating,morningglory; [3],0
same,Morningglory plant response rating,morningglory; [4],0
same,Morningglory plant response rating,morningglory; [5],0
same,"Plant response rating, Morningglory","morningglory; Preemergence, 500 g ai/ha",0
same,Barnyardgrass plant response rating,barnyardgrass [1]; [3],0
same,Barnyardgrass plant response rating,barnyardgrass [1]; [4],0
same,Barnyardgrass plant response rating,barnyardgrass [1]; [5],50
same,"Plant response rating, Barnyardgrass","barnyardgrass [1]; Preemergence, 500 g ai/ha",90
same,"Plant response rating, Rice",rice; [6],0
same,"Plant response rating, Rice",rice; [7],50
same,"Plant response rating, Rice",rice; [8],65
same,"Plant response rating, Rice",rice; [9],85
same,"Plant response rating, Ducksalad",duck salad; [6],0
same,"Plant response rating, Ducksalad",duck salad; [7],0
same,"Plant response rating, Ducksalad",duck salad; [8],0
same,"Plant response rating, Ducksalad",duck salad; [9],95
same,Corn plant response rating,corn; [3],0
same,Corn plant response rating,corn; [4],0
same,Corn plant response rating,corn; [5],0
same,"Plant response rating, Corn","corn; Preemergence, 500 g ai/ha",0
same,"Plant response rating, Sedge, Umbrella",umbrella sedge; [6],0
same,"Plant response rating, Sedge, Umbrella",umbrella sedge; [7],0
same,"Plant response rating, Sedge, Umbrella",umbrella sedge; [8],20
same,"Plant response rating, Sedge, Umbrella",umbrella sedge; [9],100
same,Pigweed plant response rating,redroot pigweed; [3],0
same,Pigweed plant response rating,redroot pigweed; [4],0
same,"Plant response rating, Barnyardgrass",barnyardgrass [2]; [6],0
same,"Plant response rating, Barnyardgrass",barnyardgrass [2]; [7],0
same,"Plant response rating, Barnyardgrass",barnyardgrass [2]; [8],20
same,"Plant response rating, Barnyardgrass",barnyardgrass [2]; [9],80
same,"Foxtail, Giant plant response rating",giant foxtail; [3],0
same,"Foxtail, Giant plant response rating",giant foxtail; [4],10
same,"Foxtail, Giant plant response rating",giant foxtail; [5],50
same,"Plant response rating, Foxtail, Giant","giant foxtail; Preemergence, 500 g ai/ha",70
same,"Crabgrass, Large plant response rating",crabgrass; [3],0
same,"Crabgrass, Large plant response rating",crabgrass; [4],30
same,"Crabgrass, Large plant response rating",crabgrass; [5],40
same,"Plant response rating, Crabgrass, Large","crabgrass; Preemergence, 500 g ai/ha",80
same,Wheat plant response rating,wheat; [3],0
same,Wheat plant response rating,wheat; [4],0
same,Wheat plant response rating,wheat; [5],0
same,"Plant response rating, Wheat","wheat; Preemergence, 500 g ai/ha",0
same,Velvetleaf plant response rating,velvetleaf; [3],0
same,Velvetleaf plant response rating,velvetleaf; [4],0
same,Velvetleaf plant response rating,velvetleaf; [5],0
same,"Plant response rating, Velvetleaf","velvetleaf; Preemergence, 500 g ai/ha",0
Cn1nc(C(F)(F)F)c(CS(=O)(=O)c2cc(F)cc[n+]2[O-])c1Cl [Compound 41],Morningglory plant response rating,morningglory; [3],0
same,Morningglory plant response rating,morningglory; [4],0
same,Morningglory plant response rating,morningglory; [5],0
same,"Plant response rating, Morningglory","morningglory; Preemergence, 500 g ai/ha",20
same,Barnyardgrass plant response rating,barnyardgrass [1]; [3],0
same,Barnyardgrass plant response rating,barnyardgrass [1]; [4],0
same,Barnyardgrass plant response rating,barnyardgrass [1]; [5],0
same,"Plant response rating, Barnyardgrass","barnyardgrass [1]; Preemergence, 500 g ai/ha",60
same,"Plant response rating, Rice",rice; [6],0
same,"Plant response rating, Rice",rice; [7],0
same,"Plant response rating, Rice",rice; [8],0
same,"Plant response rating, Rice",rice; [10],15
same,"Plant response rating, Ducksalad",duck salad; [6],75
same,"Plant response rating, Ducksalad",duck salad; [7],75
same,"Plant response rating, Ducksalad",duck salad; [8],75
same,"Plant response rating, Ducksalad",duck salad; [10],80
same,Corn plant response rating,corn; [3],0
same,Corn plant response rating,corn; [4],0
same,Corn plant response rating,corn; [5],0
same,"Plant response rating, Corn","corn; Preemergence, 500 g ai/ha",30
same,"Plant response rating, Sedge, Umbrella",umbrella sedge; [6],80
same,"Plant response rating, Sedge, Umbrella",umbrella sedge; [7],80
same,"Plant response rating, Sedge, Umbrella",umbrella sedge; [8],80
same,"Plant response rating, Sedge, Umbrella",umbrella sedge; [10],80
same,Pigweed plant response rating,redroot pigweed; [3],0
same,Pigweed plant response rating,redroot pigweed; [4],0
same,Pigweed plant response rating,redroot pigweed; [5],0
same,"Plant response rating, Pigweed","redroot pigweed; Preemergence, 500 g ai/ha, 0 to 100 scale where 0 is no effect and 100 is complete control",0
same,"Plant response rating, Barnyardgrass",barnyardgrass [2]; [6],0
same,"Plant response rating, Barnyardgrass",barnyardgrass [2]; [7],0
same,"Plant response rating, Barnyardgrass",barnyardgrass [2]; [8],0
same,"Plant response rating, Barnyardgrass",barnyardgrass [2]; [10],0
same,"Foxtail, Giant plant response rating",giant foxtail; [3],0
same,"Foxtail, Giant plant response rating",giant foxtail; [4],0
same,"Foxtail, Giant plant response rating",giant foxtail; [5],0
same,"Plant response rating, Foxtail, Giant","giant foxtail; Preemergence, 500 g ai/ha",0
same,"Crabgrass, Large plant response rating",crabgrass; [3],0
same,"Crabgrass, Large plant response rating",crabgrass; [4],0
same,"Crabgrass, Large plant response rating",crabgrass; [5],0
same,"Plant response rating, Crabgrass, Large","crabgrass; Preemergence, 500 g ai/ha",0
same,Wheat plant response rating,wheat; [3],0
same,Wheat plant response rating,wheat; [4],0
same,Wheat plant response rating,wheat; [5],0
same,"Plant response rating, Wheat","wheat; Preemergence, 500 g ai/ha",0
same,Velvetleaf plant response rating,velvetleaf; [3],0
same,Velvetleaf plant response rating,velvetleaf; [4],0
same,Velvetleaf plant response rating,velvetleaf; [5],0
same,"Plant response rating, Velvetleaf","velvetleaf; Preemergence, 500 g ai/ha",0
